{
  "source": "patent US20120302566A1",
  "about": "“INDANYLOXYDIHYDROBENZOFURANYLACETIC ACIDS” (BOEHRINGER INGELHEIM INTERNATIONAL GMBH, priority 2010, published 2012)",
  "data": [
    {"target": "human GPR40 receptor (Homo sapiens, UniProt O14842)", "sequence (O14842 whole entry)": "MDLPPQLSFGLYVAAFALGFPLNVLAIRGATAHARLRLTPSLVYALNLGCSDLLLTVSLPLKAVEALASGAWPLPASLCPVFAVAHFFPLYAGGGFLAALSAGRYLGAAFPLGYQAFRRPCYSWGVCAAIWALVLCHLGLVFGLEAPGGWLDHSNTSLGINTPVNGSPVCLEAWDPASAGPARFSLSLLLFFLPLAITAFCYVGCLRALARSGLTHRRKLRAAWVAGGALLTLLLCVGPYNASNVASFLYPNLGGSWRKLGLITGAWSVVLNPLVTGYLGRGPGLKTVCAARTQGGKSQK", "assay": "IP1 accumulation measurements using the IPOne assay system", "type": "cell-based", "details": "IP1 accumulation (IPOne HTRF), 1 hour stimulation; 1321N1 cells stably expressing human GPR40; read-out: EC50 values on GPR40 determined as described in (B)", "procedure": "(B) IP1 accumulation measurements using the IPOne assay system—1321N1 cells stably expressing human GPR40 receptor (Euroscreen, Belgium) were seeded 24 h before the assay in black clear-bottom collagen-coated 384-well plates in culture medium containing 10% FCS, 1% Na-Pyruvate and 400 μg/mL G418. IP1 is assayed according to the Manufacturer's description (Cisbio Bioassays, France). In brief, the assay is started by substitution of the culture medium by stimulation buffer (Hepes 10 mM, CaCl2 1 mM, MgCl2 0.5 mM, KCl 4.2 mM, NaCl 146 mM and glucose 5.5 mM, pH 7.4) without LiCl. Cells are stimulated for 1 hour at 37°, 10% CO2 by addition of the compounds that were diluted in stimulation buffer containing LiCl yielding a final LiCl concentration of 50 mM. Assays are stopped by adding HTRF-conjugates (IP1-d2 and Anti-IP1 cryptate Tb) and lysis buffer, provided by the manufacturer. After an incubation time of 1 hour at room temperature plates are measured using an EnVision™, Perkin Elmer.", "units": {"EC50": "nM"}, "values": [
      {"smiles": "CC(C)(C)c1ccc2c(c1)CC[C@H]2Oc1ccc2c(c1)OC[C@H]2CC(=O)O", "note": "[Example 95, {(S)-6-[(R)-5-tert-Butyl-indan-1-yloxy]-2,3-dihydro-benzofuran-3-yl}-acetic acid]", "EC50": 100},
      {"smiles": "Cc1nn(C)c(C)c1-c1cccc2c1CC[C@H]2Oc1ccc2c(c1)OC[C@H]2CC(=O)O", "note": "[Example 49, {(S)-6-[(R)-4-(1,3,5-Trimethyl-1H-pyrazol-4-yl)-indan-1-yloxy]-2,3-dihydro-benzofuran-3-yl}-acetic acid]", "EC50": 1910},
      {"smiles": "O=C(O)C[C@@H]1COc2cc(O[C@@H]3CCc4c3ccc(C(F)(F)F)c4Cl)ccc21", "note": "[Example 98, {(S)-6-[(R)-4-Chloro-5-trifluoromethyl-indan-1-yloxy]-2,3-dihydro-benzofuran-3-yl}-acetic acid]", "EC50": 46},
      {"smiles": "O=C(O)C[C@@H]1COc2cc(O[C@@H]3CCc4c(OC(F)(F)F)cccc43)ccc21", "note": "[Example 25, {(S)-6-[(R)-4-Trifluoromethoxy-indan-1-yloxy]-2,3-dihydro-benzofuran-3-yl}-acetic acid]", "EC50": 18},
      {"smiles": "O=C(O)C[C@@H]1COc2cc(O[C@@H]3CCc4c3cccc4N3CCOCC3)ccc21", "note": "[Example 65, {(S)-6-[(R)-4-Morpholin-4-yl-indan-1-yloxy]-2,3-dihydro-benzofuran-3-yl}-acetic acid]", "EC50": 1850},
      {"smiles": "CC1(C)CCC[C@H]1c1cccc2c1CC[C@H]2Oc1ccc2c(c1)OC[C@H]2CC(=O)O", "note": "(single isomer, unassigned) [Example 76]", "EC50": 95},
      {"smiles": "Cc1cn(C)c(=O)c(C)c1-c1cccc2c1CC[C@H]2Oc1ccc2c(c1)OC[C@H]2CC(=O)O", "note": "[Example 61, {(S)-6-[(R)-4-(1,3,5-Trimethyl-2-oxo-1,2-dihydro-pyridin-4-yl)-indan-1-yloxy]-2,3-dihydro-benzofuran-3-yl}-acetic acid]", "EC50": 155},
      {"smiles": "COC(C)(c1cccc2c1CC[C@H]2Oc1ccc2c(c1)OC[C@H]2CC(=O)O)C(C)(C)C", "note": "(stereo partly drawn) [Example 78, {(S)-6-[(R)-4-(1-Methoxy-1,2,2-trimethyl-propyl)-indan-1-yloxy]-2,3-dihydro-benzofuran-3-yl}-acetic acid]", "EC50": 76},
      {"smiles": "O=C(O)C[C@@H]1COc2cc(O[C@@H]3CCc4c3ccc(F)c4Cl)ccc21", "note": "[Example 44, {(S)-6-[(R)-4-Chloro-5-fluoro-indan-1-yloxy]-2,3-dihydro-benzofuran-3-yl}-acetic acid]", "EC50": 25},
      {"smiles": "Cc1noc(C)c1-c1cccc2c1CC[C@H]2Oc1ccc2c(c1)OC[C@H]2CC(=O)O", "note": "[Example 74, {(S)-6-[(R)-4-(3,5-Dimethyl-isoxazol-4-yl)-indan-1-yloxy]-2,3-dihydro-benzofuran-3-yl}-acetic acid]", "EC50": 327},
      {"smiles": "O=C(O)C[C@@H]1COc2cc(O[C@@H]3CCc4c(-c5nccc6ccccc56)cccc43)ccc21", "note": "[Example 77, {(S)-6-[(R)-4-Isoquinolin-1-yl-indan-1-yloxy]-2,3-dihydro-benzofuran-3-yl}-acetic acid]", "EC50": 57},
      {"smiles": "COC(c1cccc2c1CC[C@H]2Oc1ccc2c(c1)OC[C@H]2CC(=O)O)C(C)(C)C", "note": "(mixture of isomers) [Example 27, {(S)-6-[(R)-4-(1-Methoxy-2,2-dimethyl-propyl)-indan-1-yloxy]-2,3-dihydro-benzofuran-3-yl}-acetic acid]", "EC50": 23},
      {"smiles": "Cc1ccc2ccccc2c1-c1cccc2c1CC[C@H]2Oc1ccc2c(c1)OC[C@H]2CC(=O)O", "note": "[Example 80, {(S)-6-[(R)-4-(2-Methyl-naphthalen-1-yl)-indan-1-yloxy]-2,3-dihydro-benzofuran-3-yl}-acetic acid]", "EC50": 20},
      {"smiles": "O=C(O)C[C@@H]1COc2cc(OC3CCc4ccccc43)ccc21", "note": "(stereo partly drawn) [Example 43]", "EC50": 420},
      {"smiles": "O=C(O)C[C@@H]1COc2cc(O[C@@H]3CCc4cc(Cl)ccc43)ccc21", "note": "[Example 21, {(S)-6-[(R)-5-Chloro-indan-1-yloxy]-2,3-dihydro-benzofuran-3-yl}-acetic acid]", "EC50": 54},
      {"smiles": "COC(C)(C)C(F)(F)c1cccc2c1CC[C@H]2Oc1ccc2c(c1)OC[C@H]2CC(=O)O", "note": "[Example 84, {(S)-6-[(R)-4-(1,1-Difluoro-2-methoxy-2-methyl-propyl)-indan-1-yloxy]-2,3-dihydro-benzofuran-3-yl}-acetic acid]", "EC50": 117},
      {"smiles": "CC(C)(C)c1cccc2c1CC[C@H]2Oc1ccc2c(c1)OC[C@H]2CC(=O)O", "note": "[Example 96, {(S)-6-[(R)-4-tert-Butyl-indan-1-yloxy]-2,3-dihydro-benzofuran-3-yl}-acetic acid]", "EC50": 36},
      {"smiles": "O=C(O)C[C@@H]1COc2cc(O[C@@H]3CCc4c(-c5ccccc5C(F)(F)C(F)(F)F)cccc43)ccc21", "note": "[Example 94, {(S)-6-[(R)-4-(2-Pentafluoroethyl-phenyl)-indan-1-yloxy]-2,3-dihydro-benzofuran-3-yl}-acetic acid]", "EC50": 7},
      {"smiles": "CC1=C(c2cccc3c2CC[C@H]3Oc2ccc3c(c2)OC[C@H]3CC(=O)O)C(C)(C)CCC1", "note": "[Example 48, {(S)-6-[(R)-4-(2,6,6-Trimethyl-cyclohex-1-enyl)-indan-1-yloxy]-2,3-dihydro-benzofuran-3-yl}-acetic acid]", "EC50": 16},
      {"smiles": "COc1ncc(C)c(-c2cccc3c2CC[C@H]3Oc2ccc3c(c2)OC[C@H]3CC(=O)O)c1C", "note": "[Example 60, {(S)-6-[(R)-4-(2-Methoxy-3,5-dimethyl-pyridin-4-yl)-indan-1-yloxy]-2,3-dihydro-benzofuran-3-yl}-acetic acid]", "EC50": 51},
      {"smiles": "CO[C@@H](c1cccc2c1CC[C@H]2Oc1ccc2c(c1)OC[C@H]2CC(=O)O)C(F)(F)F", "note": "(single isomer, unassigned) [Example 39, {(S)-6-[(R)-4-((S)*-2,2,2-Trifluoro-1-methoxy-ethyl)-indan-1-yloxy]-2,3-dihydro-benzofuran-3-yl}-acetic acid]", "EC50": 262},
      {"smiles": "Cn1ccnc1-c1cccc2c1CC[C@H]2Oc1ccc2c(c1)OC[C@H]2CC(=O)O", "note": "[Example 57, {(S)-6-[(R)-4-(1-methyl-1H-imidazol-2-yl)-indan-1-yloxy]-2,3-dihydro-benzofuran-3-yl}-acetic acid]", "EC50": 8900},
      {"smiles": "Cc1ccc2c(c1C(F)(F)F)CC[C@H]2Oc1ccc2c(c1)OC[C@H]2CC(=O)O", "note": "[Example 36, {(S)-6-[(R)-5-Methyl-4-trifluoromethyl-indan-1-yloxy]-2,3-dihydro-benzofuran-3-yl}-acetic acid]", "EC50": 19},
      {"smiles": "COCC(F)(F)c1cccc2c1CC[C@H]2Oc1ccc2c(c1)OC[C@H]2CC(=O)O", "note": "[Example 79, {(S)-6-[(R)-4-(1,1-Difluoro-2-methoxy-ethyl)-indan-1-yloxy]-2,3-dihydro-benzofuran-3-yl}-acetic acid]", "EC50": 288},
      {"smiles": "Cc1cccc(Cl)c1-c1cccc2c1CC[C@H]2Oc1ccc2c(c1)OC[C@H]2CC(=O)O", "note": "[Example 90, {(S)-6-[(R)-4-(2-Chloro-6-methyl-phenyl)-indan-1-yloxy]-2,3-dihydro-benzofuran-3-yl}-acetic acid]", "EC50": 36},
      {"smiles": "CC(C)(O)C(F)(F)c1cccc2c1CC[C@H]2Oc1ccc2c(c1)OC[C@H]2CC(=O)O", "note": "[Example 85, {(S)-6-[(R)-4-(1,1-Difluoro-2-hydroxy-2-methyl-propyl)-indan-1-yloxy]-2,3-dihydro-benzofuran-3-yl}-acetic acid]", "EC50": 3720},
      {"smiles": "N#Cc1cccnc1-c1cccc2c1CC[C@H]2Oc1ccc2c(c1)OC[C@H]2CC(=O)O", "note": "[Example 46, {(S)-6-[(R)-4-(3-Cyano-pyridin-2-yl)-indan-1-yloxy]-2,3-dihydro-benzofuran-3-yl}-acetic acid]", "EC50": 982}
    ]}
  ]
}
